Assay results reported in publication PMC7924852, “The Emericellipsins A–E from an Alkalophilic Fungus Emericellopsis alkalina Show Potent Activity against Multidrug-Resistant Pathogenic Fungi” (Journal of Fungi, 2021).
≈ marks a conversion by molar mass, not a printed value. Read-outs that look alike come from different tables or passages of the source. Starred links: 1 amine or outer side, 2 acyl side, 3 side chain; linkers in the order of their positions; H or OH if unused. Positions of bridges follow the written chain, without caps; N, C: chain ends. Non-standard residues stand in square brackets, D forms with d. Residues, ends and D or L forms follow the SMILES beside them. *: point of attachment. pTerphenylCO(4''-OnC5H11) = CCCCCOc1ccc(-c2ccc(-c3ccc(C(=O)*)cc3)cc2)cc1; Orn(4R-OH,5R-OH) = O=C([C@H](C[C@@H](O)[C@@H](O)N[*:3])N[*:1])[*:2]; hTyr(3S-OH,4S-OH) = N[C@H](C(=O)O)[C@H](O)[C@@H](O)c1ccc(O)cc1; Pro(3S-OH,4S-Me) = C[C@H]1CN[C@H](C(=O)O)[C@H]1O; Hyp = O=C(O)[C@@H]1C[C@@H](O)CN1

How the values were obtained:
[1] = tested on: C. krusei 1447; assay: Sensititre YeastOne antifungal susceptibility test; type: cell-based; details: Pichia kudriavzevii
[2] = tested on: C. glabrata 1402; assay: Sensititre YeastOne antifungal susceptibility test; type: cell-based; details: Nakaseomyces glabratus
[3] = tested on: Candida albicans 1402; assay: Sensititre YeastOne antifungal susceptibility test; type: cell-based
[4] = tested on: C. parapsilosis 571; assay: Sensititre YeastOne antifungal susceptibility test; type: cell-based; details: Lodderomyces parapsilosis
[5] = tested on: A. fumigatus 390m; assay: Sensititre YeastOne antifungal susceptibility test; type: cell-based; details: Aspergillus fumigatus
[6] = tested on: C. tropicalis 156; assay: Sensititre YeastOne antifungal susceptibility test; type: cell-based; details: Candida tropicalis
[7] = tested on: A. terreus 497; assay: Sensititre YeastOne antifungal susceptibility test; type: cell-based; details: Aspergillus terreus
[8] = tested on: Cryptococcus neoformans 297; assay: Sensititre YeastOne antifungal susceptibility test; type: cell-based
[9] = tested on: Aspergillus niger 1133m; assay: Sensititre YeastOne antifungal susceptibility test; type: cell-based
[10] = tested on: Cr. laurentii 325m; assay: Sensititre YeastOne antifungal susceptibility test; type: cell-based; details: Papiliotrema laurentii
[11] = tested on: C. krusei 1447; assay: Broth microdilution MIC and MFC (CLSI); type: cell-based; details: Pichia kudriavzevii
[12] = tested on: C. tropicalis 156; assay: Broth microdilution MIC and MFC (CLSI); type: cell-based; details: Candida tropicalis
[13] = tested on: Candida albicans 1402; assay: Broth microdilution MIC and MFC (CLSI); type: cell-based
[14] = tested on: C. laurentii 325m; assay: Broth microdilution MIC and MFC (CLSI); type: cell-based, Cr. laurentii; details: Papiliotrema laurentii; C. laurentii 325m clinical isolate; RPMI 1640 pH 7.0, 35 °C, 24 h; read-out: MIC
[15] = tested on: Cryptococcus neoformans 297; assay: Broth microdilution MIC and MFC (CLSI); type: cell-based; details: Cryptococcus neoformans 297 clinical isolate; RPMI 1640 pH 7.0, 35 °C, 24 h; read-out: MIC
[16] = tested on: C. parapsilosis 571; assay: Broth microdilution MIC and MFC (CLSI); type: cell-based; details: Lodderomyces parapsilosis
[17] = tested on: C. glabrata 1402; assay: Broth microdilution MIC and MFC (CLSI); type: cell-based; details: Nakaseomyces glabratus

Structure (SMILES) | MIC [1]; 1447 | MIC [2]; 1402 | MIC ([3]; Candida albicans, 1402) | MIC [4]; 571 | MIC ([5]; 390M) | MIC [6]; 156 | MIC [7]; 497 | MIC ([8]; Cryptococcus neoformans, 297) | MIC ([9]; Aspergillus niger, 1133M) | MIC ([10]; 325M) | further results
CCCCCOc1ccc(-c2ccc(-c3ccc(C(=O)N[C@H]4C[C@@H](O)[C@@H](O)NC(=O)[C@@H]5[C@@H](O)[C@@H](C)CN5C(=O)[C@H]([C@@H](C)O)NC(=O)[C@H]([C@H](O)[C@@H](O)c5ccc(O)cc5)NC(=O)[C@@H]5C[C@@H](O)CN5C(=O)[C@H]([C@@H](C)O)NC4=O)cc3)cc2)cc1 [AND, anidulafungin] ({pTerphenylCO(4''-OnC5H11)}-[Orn(4R-OH,5R-OH)]T[Hyp][hTyr(3S-OH,4S-OH)]T[Pro(3S-OH,4S-Me)]; lactam 1-C) | 0.03 µg/mL (≈ 0.0263 µM) | 0.06 µg/mL (≈ 0.0526 µM) | 0.06 µg/mL (≈ 0.0526 µM) | 2 µg/mL (≈ 1.75 µM) | > 8 µg/mL | 0.12 µg/mL (≈ 0.105 µM) | > 8 µg/mL | > 8 µg/mL | > 8 µg/mL | > 8 µg/mL | –
CC[C@H](C)C[C@H](C)CCCCCCCCC(=O)N[C@H]1C[C@@H](O)[C@@H](NCCN)NC(=O)[C@@H]2[C@@H](O)CCN2C(=O)[C@H]([C@H](O)CCN)NC(=O)[C@H]([C@H](O)[C@@H](O)c2ccc(O)cc2)NC(=O)[C@@H]2C[C@@H](O)CN2C(=O)[C@H]([C@@H](C)O)NC1=O [CAS, Caspofungin] | 0.25 µg/mL (≈ 0.229 µM) | 0.06 µg/mL (≈ 0.0549 µM) | 0.06 µg/mL (≈ 0.0549 µM) | 1 µg/mL (≈ 0.915 µM) | > 16 µg/mL | 0.06 µg/mL (≈ 0.0549 µM) | > 16 µg/mL | 16 µg/mL (≈ 14.6 µM) | > 16 µg/mL | 16 µg/mL (≈ 14.6 µM) | MFC ([11]; C. krusei 1447, lowest concentration causing 95% death, read-out: MFC): 1 µg/mL (≈ 0.915 µM); MIC ([11]; C. krusei 1447 clinical isolate, RPMI 1640 pH 7.0, 35 °C, 24 h, read-out: MIC): 0.25 µg/mL (≈ 0.229 µM); MFC ([12]; C. tropicalis 156, lowest concentration causing 95% death, read-out: MFC): 0.5 µg/mL (≈ 0.457 µM); MIC ([12]; C. tropicalis 156 clinical isolate, RPMI 1640 pH 7.0, 35 °C, 24 h, read-out: MIC): 0.06 µg/mL (≈ 0.0549 µM); MFC ([13]; Candida albicans 1402, lowest concentration causing 95% death, plated on PDA agar, read-out: MFC): 0.5 µg/mL (≈ 0.457 µM); MIC ([13]; Candida albicans 1402 clinical isolate, RPMI 1640 pH 7.0, 35 °C, 24 h, read-out: MIC): 0.06 µg/mL (≈ 0.0549 µM); MIC [14]: 16 µg/mL (≈ 14.6 µM); MIC [15]: > 64 µg/mL; MFC ([16]; C. parapsilosis 571, lowest concentration causing 95% death, read-out: MFC): 1 µg/mL (≈ 0.915 µM); MIC ([16]; C. parapsilosis 571 clinical isolate, RPMI 1640 pH 7.0, 35 °C, 24 h, read-out: MIC): 1 µg/mL (≈ 0.915 µM); MFC ([17]; C. glabrata 1402, lowest concentration causing 95% death, read-out: MFC): 0.5 µg/mL (≈ 0.457 µM); MIC ([17]; C. glabrata 1402 clinical isolate, RPMI 1640 pH 7.0, 35 °C, 24 h, read-out: MIC): 0.06 µg/mL (≈ 0.0549 µM)
Nc1[nH]c(=O)ncc1F [Emi 5-FC, flucytosine] | 32 µg/mL (≈ 248 µM) | 0.06 µg/mL (≈ 0.465 µM) | 0.06 µg/mL (≈ 0.465 µM) | 0.5 µg/mL (≈ 3.87 µM) | > 64 µg/mL | 0.06 µg/mL (≈ 0.465 µM) | > 64 µg/mL | 8 µg/mL (≈ 62 µM) | > 64 µg/mL | 4 µg/mL (≈ 31 µM) | –
CCC(C)n1ncn(-c2ccc(N3CCN(c4ccc(OCC5COC(Cn6cncn6)(c6ccc(Cl)cc6Cl)O5)cc4)CC3)cc2)c1=O (stereo not shown) [IZ, itraconazole] | – | – | – | – | – | – | – | – | – | – | MIC ([1]; Sensititre YeastOne, C. krusei 1447 clinical isolate, read-out: MIC): 0.5 µg/mL (≈ 0.709 µM); MIC ([2]; Sensititre YeastOne, C. glabrata 1402 clinical isolate, read-out: MIC): > 16 µg/mL; MIC ([3]; Sensititre YeastOne, Candida albicans 1402 clinical isolate, read-out: MIC): 0.5 µg/mL (≈ 0.709 µM); MIC ([4]; Sensititre YeastOne, C. parapsilosis 571 clinical isolate, read-out: MIC): 0.5 µg/mL (≈ 0.709 µM); MIC ([5]; Sensititre YeastOne, A. fumigatus 390m clinical isolate, read-out: MIC): 0.25 µg/mL (≈ 0.354 µM); MIC ([6]; Sensititre YeastOne, C. tropicalis 156 clinical isolate, read-out: MIC): > 16 µg/mL; MIC ([7]; Sensititre YeastOne, A. terreus 497 clinical isolate, read-out: MIC): 0.25 µg/mL (≈ 0.354 µM); MIC ([8]; Sensititre YeastOne, Cryptococcus neoformans 297 clinical isolate, read-out: MIC): 0.5 µg/mL (≈ 0.709 µM); MIC ([9]; Sensititre YeastOne, Aspergillus niger 1133m clinical isolate, read-out: MIC): 1 µg/mL (≈ 1.42 µM); MIC ([10]; Sensititre YeastOne, Cr. laurentii 325m clinical isolate, read-out: MIC): 0.12 µg/mL (≈ 0.17 µM)
